In test [1] the test system is human prostate carcinoma DU145 cells. Description: Growth inhibition test (MTS). It is filed as cell-based. As to conditions: 72 hours. As to the method:
(§1) Two thousand cells of human prostate carcinoma DU145 were inoculated into each well of a 96-well microplate (manufactured by Corning Corp.), and using DMEM medium (culture medium) containing 10% fetal calf serum (FCS). The same day, a dimethyl sulfoxide (DMSO) solution of each test compound prepared in a concentration of 10 mmol/L was further diluted with DMSO to the desired concentrations (0.1, 0.5, 1, 2.5, 5 and 10 micromol/L), and the diluted solution was added to each well. The individual wells were further cultured in 5% carbon dioxide at 37° C. for 72 hours. After completion of the culture, 10 μl MTS (3-(4,5-Dimethyl-2-thiazolyl)-5-(carboxymethoxyphenyl)-2-(4-sulfophenyl)-2H-tetrazolium, innersalt assay (CellTiter96® AQueous One Solution Cell Proliferation Assay, Promega) was added to each well, and culturing was performed in 5% carbon dioxide at 37° C. for 2 hours. Using a microplate spectrophotometer (Synergy 2 multi-mode microplate reader (BioTek)), the absorbance of each well was measured at 490 nm. The value for cells not incorporated with a test compound was designated as 100%. By comparing these values with the absorbance difference obtained at the well in which each test compound was added, the cell viability (% viability) after treatment with the test compound was calculated.

Test [2] deals with human chronic myelogenous leukemia MEG-01 cells. Description: Growth inhibition test (MTS). Format: cell-based. Conditions: MEG01; 72 hours. As to the method: as §1, with “Ten” for “Two”, “chronic myelogenous leukemia MEG-01” for “prostate carcinoma DU145”, “Corp.)” for “Corp.), and”, “RPMI 8226” for “DMEM”, “inner salt” for “innersalt”
Test [3] relates to human acute myeloid leukemia MOLM-13 cells. Kind of test: Growth inhibition test (MTS). It is filed as cell-based. Conditions: MOLM13, 72 hours, read-out: Cytotoxicity in MTS assay (ED50). The procedure: as §1, with “Ten” for “Two”, “acute myeloid leukemia MOLM-13” for “human prostate carcinoma DU145”, “Corp.)” for “Corp.), and”, “RPMI 8226” for “DMEM”, “inner salt” for “innersalt”

The test system of test [4] is human acute lymphocytic leukemia E6.1 Jurkat cells. Description: Growth inhibition test (MTS). It is filed as cell-based. Conditions: 72 hours, read-out: Cytotoxicity in MTS assay (ED50). The procedure:
as §1, with “Twenty” for “Two”, “acute lumphocytic leukemia E6.1 Jurkat” for “prostate carcinoma DU145”, “Corp.)” for “Corp.), and”, “[…]” for “DMEM”, “inner salt” for “innersalt”

The target in another test is PIM1 (Homo sapiens, UniProt P11309). Description: Radiometric kinase assay (HotSpot). Conditions: for Selectivity for Pim-1 over CK2α: ratio of IC50 values.
PIM1, sequence (P11309 whole entry): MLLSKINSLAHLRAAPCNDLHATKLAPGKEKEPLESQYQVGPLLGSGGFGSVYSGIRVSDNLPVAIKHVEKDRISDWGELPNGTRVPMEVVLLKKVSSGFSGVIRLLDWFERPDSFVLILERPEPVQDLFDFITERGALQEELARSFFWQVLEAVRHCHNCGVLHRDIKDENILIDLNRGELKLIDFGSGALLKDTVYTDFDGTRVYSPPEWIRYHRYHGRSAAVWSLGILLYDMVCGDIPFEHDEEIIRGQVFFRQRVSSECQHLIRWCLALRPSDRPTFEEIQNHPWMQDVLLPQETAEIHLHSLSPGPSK
In a further test the target is PIM3 (Homo sapiens, UniProt Q86V86). Description: Radiometric kinase assay (HotSpot). As to conditions: for Selectivity for Pim-3 over CK2α: ratio of IC50 values.
Where [5] appears, read: read-out: Inhibitory activity (IC50 in nM) in radiometric cell free assay, Pim-1, ATP 1 μM, peptide 5 μM.
Where [6] appears, read: read-out: Inhibitory activity (IC50 in nM) in radiometric cell free assay, Pim-3, ATP 1 μM, peptide 20 μM.

The text below walks through data of patent US20110230481A2, “DERIVATIVES OF TETRABROMOBENZIMIDAZOLE, A PROCESS FOR THE PREPARATION THEREOF, A PHARMACEUTICAL COMPOSITION COMPRISING THE SAME, A METHOD OF USING THE SAME, A METHOD FOR MODULATING OR REGULATING SERINE/THREONINE KINASES, AND SERINE/THREONINE KINASES MODULATING AGENT” (SELVITA S.A., priority 2009, published 2011).

Where two headings read alike, the source gives them in different places. Where only a bound is given, the exact number is not on record here.

Protocol for PIM1: (§2) Kinase assays were performed at Reaction Biology Corporation (www.reactionbiology.com, Malvern Pa.) using the “HotSpot” assay platform. This assay platform is based on a radiometric filtration binding assay and is considered as the “gold standard” to which non-radiometric methods are compared. In this assay format, the kinase reaction is performed in the presence of 32 P-γ-ATP or 33 P-γ-ATP, followed by binding of the final radioisotope labeled peptide product to filters after which unreacted phosphate is washed away and the levels of phosphorylated peptide are measured.
Protocol for PIM3: as §2

Turning to `Brc1c(Br)c(Br)c2[nH]c(NCCN3CCCCC3)nc2c1Br` [Compound 13, 4,5,6,7-tetrabromo-N-(2-(piperidin-1-yl)ethyl)-1H-benzo[d]imidazol-2-amine], the results for the “Cytotoxicity in MTS assay (ED50)” value in test [1] and in test [2] were 4.1 µM and 4.37 µM, respectively. For the same compound, the IC50 in test [3] (Homo sapiens, MOLM-13) was found to be 2.18 µM; in test [4] (Homo sapiens), 1.34 µM; at PIM1 it was 23.1 nM; at PIM3 it was 60.7 nM. For the same compound, the “Selectivity for Pim-1 over CK2α” value at PIM1 was found to be 98.2. Further, on PIM3, the “Selectivity for Pim-3 over CK2α” value came to 37.3.
For the compound `CN(C)c1nc2c(Br)c(Br)c(Br)c(Br)c2n1CC(=O)O` [Compound K66, reference compound], the “Cytotoxicity in MTS assay (ED50)” value in test [1] and in test [2] was greater than 10 µM in each case. Moreover, the IC50 in test [3] was greater than 10 µM; in test [4], greater than 10 µM; on PIM1 (setting [5]), 194 nM; at PIM3 (setting [6]), 96.3 nM. For the same compound, the “Selectivity for Pim-1 over CK2α” value on PIM1 is recorded as 1.1. For the same compound, the “Selectivity for Pim-3 over CK2α” value on PIM3 was found to be 2.1.
Consider `Brc1c(Br)c(Br)c2c(Br)n[nH]c2c1Br` [Compound K64, reference compound], for which the “Cytotoxicity in MTS assay (ED50)” value in test [1] and in test [2] was greater than 10 µM in each case. The IC50 in test [3] was greater than 10 µM; in test [4], greater than 10 µM; on PIM1 (setting [5]) it was 308 nM; at PIM3 (setting [6]), 212 nM. Moreover, the “Selectivity for Pim-1 over CK2α” value on PIM1 turned out to be 2.1. Moreover, the “Selectivity for Pim-3 over CK2α” value at PIM3 came out at 3.0.
For `Brc1c(Br)c(Br)c2[nH]c(NCCN3CCOCC3)nc2c1Br` [Compound 16, 4,5,6,7-tetrabromo-N-(2-morpholinoethyl)-1H-benzo[d]imidazol-2-amine], the “Cytotoxicity in MTS assay (ED50)” value in test [1] is 8.64 µM. In addition, the IC50 in test [3] (Homo sapiens, MOLM-13) worked out at 4.66 µM; in test [4] (Homo sapiens), 2.46 µM; at PIM1, 67.7 nM; against PIM3, 114 nM. For the same compound, the “Selectivity for Pim-1 over CK2α” value at PIM1 is listed as 101.6. The “Selectivity for Pim-3 over CK2α” value on PIM3 worked out at 60.1.
For `Brc1c(Br)c(Br)c2[nH]cnc2c1Br` [TBI, reference compound], the “Cytotoxicity in MTS assay (ED50)” value in test [1] and in test [2] was greater than 10 µM throughout. In addition, the IC50 was 9.72 µM in test [3], greater than 10 µM in test [4], 1670 nM at PIM1 (setting [5]) and 2940 nM at PIM3 (setting [6]).
Consider `Brc1c(Br)c(Br)c2[nH]nnc2c1Br` [TBB, reference compound], for which the “Cytotoxicity in MTS assay (ED50)” value in test [1] and in test [2] was greater than 10 µM each time. Besides, the IC50 in test [3] is greater than 10 µM; in test [4], greater than 10 µM; at PIM1 (setting [5]) it was 1840 nM; at PIM3 (setting [6]), 269 nM.
On to `CN(C)c1nc2c(Br)c(Br)c(Br)c(Br)c2[nH]1` [DMAT, reference compound], for which the “Cytotoxicity in MTS assay (ED50)” value in test [1] is greater than 10 µM; in test [2], 8.91 µM. Further, the IC50 stood at 8.18 µM in test [4], 64.6 nM on PIM1 (setting [5]) and 87.3 nM at PIM3 (setting [6]).
Consider `NCCCNc1nc2c(Br)c(Br)c(Br)c(Br)c2[nH]1` [Compound 11, N-(3-aminopropyl)-4,5,6,7-tetrabromo-1H-benzo[d]imidazol-2-amine], for which the entries for the “Cytotoxicity in MTS assay (ED50)” value in test [1] and in test [2] were 7.62 µM and 7.85 µM, respectively. Besides, the IC50 in test [3] (Homo sapiens, MOLM-13) worked out at 1.37 µM; in test [4] (Homo sapiens), 1.75 µM; on PIM1, 4.8 nM; against PIM3 it was 23.3 nM. Besides, the “Selectivity for Pim-1 over CK2α” value at PIM1 is on record as 211.7. On PIM3, the “Selectivity for Pim-3 over CK2α” value is 43.6.
Consider `CN1CCN(c2nc3c(Br)c(Br)c(Br)c(Br)c3[nH]2)CC1` [Compound 21, 4,5,6,7-tetrabromo-2-(4-methylpiperazin-1-yl)-1H-benzo[d]imidazole], for which, in test [1], the “Cytotoxicity in MTS assay (ED50)” value was determined as 9.54 µM. Also, the IC50 was 1.61 µM in test [3] (Homo sapiens, MOLM-13); 2.63 µM in test [4] (Homo sapiens); 66.1 nM against PIM1; 84.1 nM at PIM3. On PIM1, the “Selectivity for Pim-1 over CK2α” value is on record as 27.6. Moreover, the “Selectivity for Pim-3 over CK2α” value at PIM3 amounted to 21.7.
In the case of `Brc1c(Br)c(Br)c2[nH]c(N3CCNCC3)nc2c1Br` [Compound 20, 4,5,6,7-tetrabromo-2-(piperazin-1-yl)-1H-benzo[d]imidazole], the “Cytotoxicity in MTS assay (ED50)” value stood at 9.27 µM in test [1] and 4.49 µM in test [2]. The IC50 in test [3] (Homo sapiens, MOLM-13) is 1.59 µM; in test [4] (Homo sapiens) it was 2.19 µM; against PIM1 it was 76.9 nM; against PIM3 it was 42 nM. Also, the “Selectivity for Pim-1 over CK2α” value on PIM1 is reported as 1.7. For the same compound, the “Selectivity for Pim-3 over CK2α” value on PIM3 came out at 3.1.
For the compound `Brc1c(Br)c(Br)c2[nH]c(NCCN3CCCC3)nc2c1Br` [Compound 14, 4,5,6,7-tetrabromo-N-(2-(pyrrolidin-1-yl)ethyl)-1H-benzo[d]imidazol-2-amine], the “Cytotoxicity in MTS assay (ED50)” value in test [1] came out at 3.14 µM; in test [2] it was 3.35 µM. The IC50 in test [3] (Homo sapiens, MOLM-13) was determined as 1.45 µM; in test [4] (Homo sapiens) it was 2.65 µM; against PIM1 it was 43.8 nM; at PIM3 it was 28.2 nM. Besides, the “Selectivity for Pim-1 over CK2α” value on PIM1 is reported as 19.0. Besides, the “Selectivity for Pim-3 over CK2α” value at PIM3 is 29.6.
